Assay [1] concerns CHO. Nature of the assay: The sensitizing capacity for colchicine treatment of multi drug resistance (MDR) CHO cell at concentration 1.0(mg/L). In kind it is functional, Cricetulus griseus.
Assay [2] has as its system CHO. Nature of the assay: The sensitizing capacity for colchicine treatment of multi drug resistance(MDR) in CHO cell at concentration 0.1(mg/L). In kind it is functional, Cricetulus griseus.
The test system of assay [3] is CHO. Nature of the assay: Sensitization of colchicine treated parental (PAR)CHO cells, measured at concentration 0.1(mg/L). In kind it is functional, Cricetulus griseus.
The subject of assay [4] is CHO. As to the kind of experiment: The sensitizing capacity for colchicine treatment of parental (PAR)CHO cells at concentration 1.0 (mg/L). In kind it is functional, Cricetulus griseus.
Assay [5] deals with KB. Nature of the assay: The sensitizing capacity of compound for colchicine treatment of multi drug resistance in KB cell was measured at concentration 1.0(mg/L). In kind it is functional, Homo sapiens.
For assay [6], the system named is KB. Nature of the assay: The sensitizing capacity of compound for colchicine treatment of multi drug resistance in KB cell was measured at concentration 3.0(mg/L).
The subject of assay [7] is CHO. Nature of the assay: The sensitizing capacity of compound for colchicine treatment of parental (PAR)CHO cells was measured at concentration 0.1 (mg/L). In kind it is functional, Cricetulus griseus.
For assay [8], the system named is KB. Nature of the assay: The sensitizing capacity of compound for colchicine treatment of multi drug resistance in KB cell was measured at concentration 3.0 (mg/L). In kind it is functional, Homo sapiens.
The subject of a further assay is KB (human). Nature of the assay: The sensitizing capacity of compound for colchicine treatment of multi drug resistance in KB cell was measured at concentration 1.0(mg/L).

The structures appear in SMILES notation. Non-standard residues stand in square brackets, D forms with d. Residues, ends and D or L forms follow the SMILES beside them. *: point of attachment. NMeI = CC[C@H](C)[C@H](NC)C(=O)O; NMeD = CN[C@@H](CC(=O)O)C(=O)O; NMeV = CN[C@H](C(=O)O)C(C)C; Pip = O=C(O)[C@@H]1CCCCN1; dLac = C[C@@H](O)C(=O)O; OtBu = CC(C)(C)O*

With `CC[C@H](C)[C@H]1C(=O)NCC(=O)N(C)[C@@H](C(C)C)C(=O)N[C@@H](Cc2ccc(OC)cc2)C(=O)O[C@H](C)C(=O)N2CCCC[C@H]2C(=O)N(C)[C@@H](C(C)C)C(=O)N[C@@H](C(C)C)C(=O)N(C)[C@@H](CC(=O)OC(C)(C)C)C(=O)N(C)[C@@H]([C@@H](C)CC)C(=O)N1C` (cyclo(G[NMeV]Y(Me)[dLac][Pip][NMeV]V[NMeD](OtBu)[NMeI][NMeI])), the Activity in the assay on CHO [1] came to 135; in the assay on CHO [2], 3.8; with CHO [3] it was 4.6; in the assay on CHO [4], 8.6; in the assay with KB [5], 1.1. For the same compound, the Chemosensitizing activity in the assay on KB [6] amounted to 1.8.
On to `CC[C@@H](C)[C@H]1C(=O)NCC(=O)N(C)[C@@H](C(C)C)C(=O)N[C@@H](Cc2ccc(OC)cc2)C(=O)O[C@H](C)C(=O)N2CCCC[C@H]2C(=O)N(C)[C@@H](C(C)C)C(=O)N[C@@H](C(C)C)C(=O)N(C)[C@H](CC(=O)O)C(=O)N(C)[C@@H]([C@@H](C)CC)C(=O)N1C`, for which the Activity was 1.8 in the assay on CHO [1], 1.1 in the assay with CHO [2], 2.2 with CHO [7] and 7.6 in the assay on CHO [4].
In the case of `CC[C@@H](C)[C@H]1C(=O)NCC(=O)N(C)[C@@H](C(C)C)C(=O)N[C@@H](Cc2ccc(OC)cc2)C(=O)O[C@H](C)C(=O)N2CCCC[C@H]2C(=O)N(C)[C@@H](C(C)C)C(=O)N[C@@H](C(C)C)C(=O)N(C)[C@H](CC(=O)NC23CC4CC(CC(C4)C2)C3)C(=O)N(C)[C@@H]([C@@H](C)CC)C(=O)N1C`, the Activity came out at 177 with CHO [1]; 25 in the assay on CHO [2]; 7.3 in the assay with CHO [3]; 8.9 in the assay with CHO [4]; 3.7 with KB [8]; 1.1 in the assay with KB (human).

Source of the values: ChEMBL document CHEMBL1127553, “Derivatives of a novel cyclopeptolide. 2. Synthesis, activity against multidrug resistance in CHO and KB cells in vitro, and structure-activity relationships” (1994).
